Read-outs that look alike come from different tables or passages of the source. Starred links: 1 amine or outer side, 2 acyl side, 3 side chain; linkers in the order of their positions; H or OH if unused. Positions of bridges follow the written chain, without caps; N, C: chain ends. Non-standard residues stand in square brackets, D forms with d. Residues, ends and D or L forms follow the SMILES beside them. *: point of attachment. Orn(4R-OH,5R-OH) = O=C([C@H](C[C@@H](O)[C@@H](O)N[*:3])N[*:1])[*:2]; hTyr(3S-OH,4S-OH) = N[C@H](C(=O)O)[C@H](O)[C@@H](O)c1ccc(O)cc1; Pro(3S-OH,4S-Me) = C[C@H]1CN[C@H](C(=O)O)[C@H]1O; Benzoyl(4-octyloxy) = CCCCCCCCOc1ccc(C(=O)*)cc1; Hyp = O=C(O)[C@@H]1C[C@@H](O)CN1
What was measured:
Experiment in all cases: Antifungal susceptibility testing, pH 7.0/35° C., 1x10^3 cells/mL
[1] = system: C. albicans 516; type: cell-based, Candida albicans
Method: (§1) 2) Assay at pH 7.0/35° C. Incubation/(Candida Strains Only).
(§2) Based on several papers published during 1990-1993 regarding the standardization of testing procedures at multiple research centers, and the finding that, inoculum size, pH of media, and the temperature of incubation drastically affect the antifungal activity of several compounds, particularly in the Azole class of antifungals, an additional assay was configured at pH 7.0 for Candida albicans. [M. A. Pfaller et al, Antimicrobial Agents and Chemotherapy, 34, 1648-1654 (1990); F. C. Odds et al, Antimicrobial Agents and Chemotherapy, 36, 1727-1737 (1992); R. A. Cook et al, Antimicrobial Agents and Chemotherapy, 34, 1542-1545 (1990)]
(§3) The assay format is identical to the first one with the following modifications: C.albicans cells are diluted to 1×10^3 cells/ml into 2× buffered YNB (YNB buffered with 1.65 mM MOPS, pH 7.0, with the addition of 2% Dextrose and 0.08% casamino acids mixture, bio 101. inc,cat #10420-100). Incubation is carried out at 35° C. instead of 30° C., and cell growth is monitored at 590 nm at 24 and 48 hrs as described. All other aspects of the assay are identical. This assay was validated with amphotericin B, fluconazole, cilofungin (Ly-121019), Nikkomycin and terbinafine using the following Candida strains- (C.albicans, B311, C.parasilosis, C.tropicalis, C.lusitaniae, C.glabrata, and C. albicans 516)-Table II. All strains were from Dr. Kobayashi, Washington university.

[2] = system: C.glabrata; type: cell-based; details: Nakaseomyces glabratus
Method: as §1, §2, §3

[3] = system: C.tropicalis; type: cell-based; details: Candida tropicalis
Method: as §1, §2, §3

[4] = system: C.lusitaniae; type: cell-based; details: Clavispora lusitaniae
Method: as §1, §2, §3

[5] = system: C.parasilosis; type: cell-based
Method: as §1, §2, §3

[6] = system: C.albicans, B311; type: cell-based; details: Candida albicans
Method: as §1, §2, §3

[7] = Candida albicans, 516, pH 7.0/35° C./1x10^3 cells/mL, 48 hrs, read-out: EC50 - 48 HRS C.albicans (516)
[8] = pH 7.0/35° C./1x10^3 cells/mL, 48 hrs, read-out: EC50 - 48 HRS C.glab.
[9] = pH 7.0/35° C./1x10^3 cells/mL, 48 hrs, read-out: EC50 - 48 HRS C.trop.
[10] = pH 7.0/35° C./1x10^3 cells/mL, 48 hrs, read-out: EC50 - 48 HRS C.lusi.
[11] = pH 7.0/35° C./1x10^3 cells/mL, 48 hrs, read-out: EC50 - 48 HRS C.para
[12] = B311, pH 7.0/35° C./1x10^3 cells/mL, 48 hrs, read-out: EC50 - 48 HRS C.albicans

| EC50 [1, 7] | EC50 [2, 8] | EC50 [3, 9] | EC50 [4, 10] | EC50 [5, 11] | EC50 [6, 12] | Structure (SMILES) | EC50 ([1]; Candida albicans, 516, pH 7, read-out: EC50 - 48 HRS C.albicans (516)) | EC50 ([2]; pH 7, read-out: EC50 - 48 HRS C.glab.) | EC50 ([3]; pH 7, read-out: EC50 - 48 HRS C.trop.) | EC50 ([4]; pH 7, read-out: EC50 - 48 HRS C.lusi.) | EC50 ([5]; pH 7, read-out: EC50 - 48 HRS C.para) | EC50 ([6]; B311, pH 7, read-out: EC50 - 48 HRS C.albicans) |
| --- | --- | --- | --- | --- | --- | --- | --- | --- | --- | --- | --- | --- |
| 0.65 µg/mL | 26 µg/mL | 2.6 µg/mL | 0.6 µg/mL | 0.91 µg/mL | 0.71 µg/mL | OC(Cn1cncn1)(Cn1cncn1)c1ccc(F)cc1F [Fluconazole, fluconazole] | – | – | – | – | – | – |
| 0.6 µM | 6.1 µM | 0.6 µM | 6.6 µM | 32 µM | 0.6 µM | CCCCCCCCOc1ccc(C(=O)N[C@H]2C[C@@H](O)[C@@H](O)NC(=O)[C@@H]3[C@@H](O)[C@@H](C)CN3C(=O)[C@H]([C@@H](C)O)NC(=O)[C@H]([C@H](O)[C@@H](O)c3ccc(O)cc3)NC(=O)[C@@H]3C[C@@H](O)CN3C(=O)[C@H]([C@@H](C)O)NC2=O)cc1 [Ly 12109, cilofungin] ({Benzoyl(4-octyloxy)}-[Orn(4R-OH,5R-OH)]T[Hyp][hTyr(3S-OH,4S-OH)]T[Pro(3S-OH,4S-Me)]; lactam 1-C) | – | – | – | – | – | – |
| – | – | – | – | – | – | C[C@@H]([C@H](N)C(=O)N[C@H](C(=O)O)[C@H]1O[C@@H](n2ccc(=O)[nH]c2=O)[C@H](O)[C@@H]1O)[C@H](O)c1ccc(O)cn1 [Nikkomycin] | 11 µM | > 100 µM | > 100 µM | 28 µM | 13 µM | 4.5 µM |
| 3.2 µM | > 100 µM | > 100 µM | 0.4 µM | 0.2 µM | 4.4 µM | CN(C/C=C/C#CC(C)(C)C)Cc1cccc2ccccc12 [Terbinafine, terbinafine] | – | – | – | – | – | – |
